Patent US20240287138A1, “CYCLIC PEPTIDES FOR INHIBITING TNF RECEPTOR 1 ACTIVITY” (Merck Sharp & Dohme LLC, priority 2023, published 2024)
Numbered stars: 1 amine (or outer) side, 2 acyl side, 3 side chain; on linkers, the order of the positions; unused ones are H or OH. Square brackets hold non-standard residues; d marks the D form. Peptide text beside a SMILES is read from it. * marks the point of attachment. Trp(7-aza,1-CH2COOH) = N[C@@H](Cc1cn(CC(=O)O)c2ncccc12)C(=O)O; Trp(βS-Me,7-OMe) = COc1cccc2c([C@H](C)[C@H](N)C(=O)O)c[nH]c12; X49 = C[N+](C)(C)CC(=O)N[C@H]1C[C@H](C(=O)[*:2])N([*:1])C1; Trp(1-CH2COOH) = N[C@@H](Cc1cn(CC(=O)O)c2ccccc12)C(=O)O; X44 = NC(=O)c1ccc([C@@H](O)[C@H](N[*:1])C(=O)[*:2])cc1; Phe(4-SO2NH2) = N[C@@H](Cc1ccc(S(N)(=O)=O)cc1)C(=O)O; Trp(7-CN) = N#Cc1cccc2c(C[C@H](N)C(=O)O)c[nH]c12; Trp(7-Cl) = N[C@@H](Cc1c[nH]c2c(Cl)cccc12)C(=O)O; X27 = O=C(O)c1ccc(C[C@H](N[*:1])C(=O)[*:2])cc1F; Phe(4-CONH2) = NC(=O)c1ccc(C[C@H](N)C(=O)O)cc1; Phe(4-COOH) = N[C@@H](Cc1ccc(C(=O)O)cc1)C(=O)O; Trp(7-aza) = N[C@@H](Cc1c[nH]c2ncccc12)C(=O)O; Pip(5R-OH) = O=C(O)[C@@H]1CC[C@@H](O)CN1; X1 = O=C([C@@H]1CC[C@H](N[*:1])C1)[*:2]; 4Pal = N[C@@H](Cc1ccncc1)C(=O)O; NMeE = CN[C@@H](CCC(=O)O)C(=O)O; dHyp = O=C(O)[C@H]1C[C@H](O)CN1; αMeS = C[C@](N)(CO)C(=O)O; Carboxymethyl = O=C(O)C*; Nle = CCCC[C@H](N)C(=O)O; Sar = CNCC(=O)O

Columns and labels:
[1] = target: T1, TNFα-induced NF-κB signal transduction pathway (TNFR1 signaling) in THP-1 cells (Homo sapiens, UniProt P19438); assay: THP-1 Lucia NF-κB reporter cell assay, inhibition of TNFα-induced NF-κB signaling; format: cell-based; conditions: THP-1 NF-κB Lucia reporter cells, 10 ng/mL TNFα, 16-18 h, secreted luciferase; read-out: THP-1 IC50
T1 sequence (P19438 30-455): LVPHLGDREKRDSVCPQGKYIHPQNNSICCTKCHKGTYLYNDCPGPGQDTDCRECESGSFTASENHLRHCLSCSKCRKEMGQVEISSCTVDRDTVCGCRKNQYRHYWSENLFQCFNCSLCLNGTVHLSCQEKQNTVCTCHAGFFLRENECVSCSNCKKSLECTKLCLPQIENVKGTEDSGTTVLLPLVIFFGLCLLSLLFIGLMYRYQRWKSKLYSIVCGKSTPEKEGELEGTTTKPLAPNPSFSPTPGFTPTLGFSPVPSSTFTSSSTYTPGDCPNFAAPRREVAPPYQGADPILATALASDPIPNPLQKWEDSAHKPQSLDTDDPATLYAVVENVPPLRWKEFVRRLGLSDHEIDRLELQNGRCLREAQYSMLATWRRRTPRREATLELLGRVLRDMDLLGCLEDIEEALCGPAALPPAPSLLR
Summary of the method: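 Inhibition of TNFR1-driven NF-κB activation was measured as luminescence of secreted reporter luciferase following overnight (16-18 h) stimulation with 10 ng/mL TNFα.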

[2] = target: T2, human soluble TNFR1 (sTNFR1) (Homo sapiens, UniProt P19438); assay: Human sTNFR1-peptide displacement assay (LanthaScreen Eu TR-FRET binding assay)
T2 construct: made in house; host or cells: Sf21 (baculovirus)
T2 sequence (P19438 with tags, fused parts or gaps): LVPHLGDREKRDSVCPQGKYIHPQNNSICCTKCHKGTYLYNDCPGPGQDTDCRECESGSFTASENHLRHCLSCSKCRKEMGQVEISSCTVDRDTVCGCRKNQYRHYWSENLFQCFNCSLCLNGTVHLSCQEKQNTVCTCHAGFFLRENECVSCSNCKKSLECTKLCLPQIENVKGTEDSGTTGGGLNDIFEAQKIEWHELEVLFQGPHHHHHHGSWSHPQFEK
Summary of the method: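 Readout is the 665/615 nm TR-FRET ratio (Eu anti-His donor, streptavidin-Alexa647 acceptor), normalized to DMSO and saturating displacer, fit by Morrison-based five-parameter logistic for Kd^app. His-tagged sTNFR1 (1-211) prebound to 100 nM biotinylated peptide SEQ ID NO.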

| Structure (SMILES) | IC50 [1] | Kd [2] |
| --- | --- | --- |
| CCCC[C@@H]1NC(=O)[C@@H]2CC[C@@H](C2)NC(=O)[C@H]([C@@H](C)c2c[nH]c3c(OC)cccc23)NC(=O)CN(C)C(=O)[C@H](Cc2ccc(C(=O)O)c(F)c2)NC(=O)[C@H](Cc2ccc(C(N)=O)cc2)NC(=O)[C@](C)(CO)NC(=O)[C@H](Cc2c[nH]c3c(C#N)cccc23)NC(=O)[C@H](Cc2ccc(C(=O)O)cc2)NC(=O)[C@H](CC(N)=O)NC(=O)[C@H]2C[C@H](NC(=O)C[N+](C)(C)C)CN2C(=O)[C@H](Cc2c[nH]c3ncccc23)NC(=O)[C@@H]2CC[C@@H](O)CN2C(=O)[C@H](Cc2ccncc2)NC1=O [SEQ ID NO. 113] (cyclo([4Pal][Pip(5R-OH)][Trp(7-aza)][X49]N[Phe(4-COOH)][Trp(7-CN)][αMeS][Phe(4-CONH2)][X27][Sar][Trp(βS-Me,7-OMe)][X1][Nle])) | 0.5 nM | 0.09 nM |
| CCCC[C@@H]1NC(=O)[C@@H]2CC[C@@H](C2)NC(=O)[C@H]([C@@H](C)c2c[nH]c3c(OC)cccc23)NC(=O)CN(C)C(=O)[C@H](Cc2ccc(OCC(=O)O)cc2)NC(=O)[C@H](Cc2ccc(S(N)(=O)=O)cc2)NC(=O)[C@](C)(CO)NC(=O)[C@H](Cc2c[nH]c3c(C#N)cccc23)NC(=O)[C@H](Cc2ccncc2)NC(=O)[C@H](CC(N)=O)NC(=O)[C@H]2C[C@H](OCC(=O)O)CN2C(=O)[C@H](Cc2cn(CC(=O)O)c3ncccc23)NC(=O)[C@@H]2CC[C@@H](O)CN2C(=O)[C@H](Cc2ccncc2)NC1=O [SEQ ID NO. 115] (cyclo([4Pal][Trp(7-CN)][αMeS][Phe(4-SO2NH2)]Y(Carboxymethyl)[Sar][Trp(βS-Me,7-OMe)][X1][Nle][4Pal][Pip(5R-OH)][Trp(7-aza,1-CH2COOH)][dHyp](Carboxymethyl)N)) | 1.4 nM | 0.19 nM |
| CCCC[C@@H]1NC(=O)[C@@H]2CC[C@@H](C2)NC(=O)[C@H]([C@@H](C)c2c[nH]c3c(OC)cccc23)NC(=O)CN(C)C(=O)[C@H](Cc2ccc(C(=O)O)cc2)NC(=O)[C@H](Cc2ccc(C(N)=O)cc2)NC(=O)[C@](C)(CO)NC(=O)[C@H](Cc2c[nH]c3c(C#N)cccc23)NC(=O)[C@H](Cc2ccc(C(=O)O)c(F)c2)NC(=O)[C@H](CC(N)=O)NC(=O)[C@H]2C[C@H](NC(=O)C[N+](C)(C)C)CN2C(=O)[C@H](Cc2c[nH]c3ncccc23)NC(=O)[C@@H]2CC[C@@H](O)CN2C(=O)[C@H](Cc2ccncc2)NC1=O [SEQ ID NO. 116] (cyclo([4Pal][Pip(5R-OH)][Trp(7-aza)][X49]N[X27][Trp(7-CN)][αMeS][Phe(4-CONH2)][Phe(4-COOH)][Sar][Trp(βS-Me,7-OMe)][X1][Nle])) | 0.4 nM | 0.08 nM |
| CCCC[C@@H]1NC(=O)[C@@H]2CC[C@@H](C2)NC(=O)[C@H]([C@@H](C)c2c[nH]c3c(OC)cccc23)NC(=O)CN(C)C(=O)[C@H](Cc2ccc(C(=O)O)cc2)NC(=O)[C@H]([C@H](O)c2ccc(C(N)=O)cc2)NC(=O)[C@](C)(CO)NC(=O)[C@H](Cc2c[nH]c3c(C#N)cccc23)NC(=O)[C@H](Cc2ccc(S(N)(=O)=O)cc2)NC(=O)[C@H](CC(N)=O)NC(=O)[C@H]2C[C@H](O)CN2C(=O)[C@H](Cc2cn(CC(=O)O)c3ccccc23)NC(=O)[C@@H]2CC[C@@H](O)CN2C(=O)[C@H](Cc2ccncc2)NC1=O [SEQ ID NO. 119] (cyclo([4Pal][Pip(5R-OH)][Trp(1-CH2COOH)][dHyp]N[Phe(4-SO2NH2)][Trp(7-CN)][αMeS][X44][Phe(4-COOH)][Sar][Trp(βS-Me,7-OMe)][X1][Nle])) | 0.7 nM | 0.12 nM |
| CCCC[C@@H]1NC(=O)[C@@H]2CC[C@@H](C2)NC(=O)[C@H]([C@@H](C)c2c[nH]c3c(OC)cccc23)NC(=O)CN(C)C(=O)[C@H](Cc2ccc(OCC(=O)O)cc2)NC(=O)[C@H](Cc2ccc(C(N)=O)cc2)NC(=O)[C@](C)(CO)NC(=O)[C@H](Cc2c[nH]c3c(Cl)cccc23)NC(=O)[C@H](Cc2ccncc2)NC(=O)[C@H](CC(N)=O)NC(=O)[C@H](CCC(=O)O)N(C)C(=O)[C@H](Cc2c[nH]c3ccccc23)NC(=O)[C@@H]2CC[C@@H](O)CN2C(=O)[C@H](Cc2ccncc2)NC1=O [SEQ ID NO. 126] (cyclo([4Pal][Trp(7-Cl)][αMeS][Phe(4-CONH2)]Y(Carboxymethyl)[Sar][Trp(βS-Me,7-OMe)][X1][Nle][4Pal][Pip(5R-OH)]W[NMeE]N)) | 0.8 nM | 0.08 nM |
